Laboratory results reported in patent publication EP3797781A1, “USE OF EC-7072 AND SYNERGIC COMPOSITIONS THEREOF IN TREATMENT OF CHRONIC LYMPHOCYTIC LEUKEMIA” (priority 2019, dated 2021).

Experiments:
active caspase-3 = assay: Caspase-3 activity assay in leukemia cells (flow cytometry); type: cell-based, human; conditions: 0 - 400 nM, 24 hours; leukemia cells in PBMCs from patients with CLL (n = 6)
Procedure: Intracellular levels of activated caspase-3 were measured by using CaspGLOW™ Fluorescein Active Caspase-3 Staining Kit (Invitrogen). In brief, EC-7072 (200 nM) or DMSO-treated PBMCs from patients with CLL were incubated with FITC-DEVD-fmk for 30 minutes at 37 °c and fluorescence was next analyzed by flow cytometry in leukemia cells. For some experiments, cells were pretreated for 2 hours with the indicated doses of the broad-spectrum caspase inhibitor Z-VAD-fmk.
The induction of caspase-dependent apoptosis on primary CLL cells by EC-7072 was assessed by: • (i) incubating PBMCs isolated from patients with CLL (n = 6) following treatment with increasing concentrations of EC-7072 (0 - 400 nM) for 24 hours. Apoptosis of leukemia cells was evaluated by cytofluorometric assessment of Annexin V/PI staining to obtain percentages of apoptotic [Annexin V^+ PI^-] and dead [PI^+] cells (Figure 3A); • (ii) incubating PBMCs and T cells isolated from patients with CLL (n = 3) following treatment with EC-7072 (200 nM) for 24 hours. T cell apoptosis was evaluated by cytofluorometric assessment of Annexin V/PI staining to obtain percentages of viable [Annexin V-], apoptotic [Annexin V^+ PI^-] and dead [PI^+] cells (Figure 3B); • (iii) incubating PBMCs isolated from patients with CLL (n = 6) following treatment with EC-7072 (0 - 400 nM) for 24 hours. […]

T cells (CD3^+CD56^-) = assay: T cell numbers, viability and apoptosis in PBMCs (flow cytometry, DiOC6(3)/PI staining); type: cell-based, human
Procedure: To evaluate absolute cell numbers, an equal volume of PKH26 reference microbeads (Sigma-Aldrich) was added to each sample after staining for immune subset identification. Microbeads (5x10^3) were acquired by flow cytometry and absolute numbers of each immune population within the sample were calculated. Normalized percentage values were calculated considering the control (DMSO)-treated cells as 100%.
Cell viability and apoptosis were evaluated by double-staining with the mitochondrial inner transmembrane potential (ΔΨm)-sensitive dye DiOC6(3) (3,3'-dihexyloxacarbocyanine iodide; Sigma-Aldrich) and the exclusion dye propidium iodide (PI; Immunostep), allowing identification of apoptotic [DiOC6(3)^low PI^-] and dead [PI^+] cells as per Proc. Natl. Acad. Sci. U.S.A. (2014) 111(8):3020-3025 and Methods Mol. Biol. (2016) 1419:1-16. Briefly, PBMCs were resuspended in culture medium containing 20 nM DiOC6(3) and incubated for 30 minutes at 37 °C. Then, PI (1 µg/mL) was added and cells were further incubated for 10 minutes at room temperature (RT). Cells were analyzed by flow cytometry considering DiOC6(3)^+PI^- cells as viable. In some experiments, apoptosis was evaluated by staining with Annexin V/PI. Thus, PBMCs were incubated in Annexin V binding buffer containing 5 µg/mL Annexin V-FITC (Biolegend) for 15 minutes at RT and PI (1 µg/mL) was subsequently added. Data were normalized to the untreated control as a percentage. Only samples with at least 60% of viable cells (DiOC6(3)^+; Annexin V^-) in the control (DMSO) condition were employed in this study.
The effect of EC-7072 toward healthy immune subsets, T lymphocytes and natural killer (NK) cells, which are chronically exposed to leukemia cells in the peripheral blood of patients with CLL was assessed by: • (i) incubating PBMCs isolated from patients with CLL (n = 10) following treatment with increasing concentrations of EC-7072 (0 - 400 nM) for 24 hours. Numbers of T cells (CD3^+CD56^-) (Figure 2A) and NK cells (CD3^-CD56^+) (Figure 2B) were evaluated by flow cytometry and normalized to their respective control (DMSO) condition for each individual patient to obtain percentage of relative number of T cells and NK cells, respectively; • (ii) incubating PBMCs isolated from patients with CLL (n = 6 - 10) following treatment with increasing concentrations of EC-7072 (0 - 400 nM) for 24 hours. Viability of immune subsets (leukemia cells, T cells and NK cells) was determined by cytofluorometric assessment of DiOC6(3)/PI staining and normalized to their respective control (DMSO) condition for each individual patient to obtain percentage of viable [DiOC6(3)^+] cells (Figures 2C and 2D); • (iii) incubating PBMCs isolated from patients with CLL (n = 11) following treatment with DMSO or EC-7072 (200 nM) for 24 hours. Numbers of CD4^+ cells (Figure 2E) and CD8^+ T cells (Figure 2F) were evaluated by flow cytometry and normalized to their respective control (DMSO) condition for each individual experiment; • (iv) incubating PBMCs isolated from healthy donors (n = 15) following treatment with EC-7072 (200 nM) for 24 hours. […]

## CO[C@@H]([C@@H]1Cc2cc3cc(O[C@H]4C[C@@H](O[C@H]5C[C@@H](O)[C@H](O)[C@@H](C)O5)[C@H](O)[C@@H](C)O4)c(C)c(O)c3c(O)c2C(=O)[C@H]1O[C@H]1C[C@@H](O[C@H]2C[C@@H](O[C@H]3C[C@](C)(O)[C@H](O)[C@@H](C)O3)[C@@H](O)[C@@H](C)O2)[C@H](O)[C@@H](C)O1)[C@@H](O)C(C)=O [EC-7072, mithramycin SK]
Active caspase-3
  intracellular levels of active caspase-3: dose-dependent increase
T cells (CD3^+CD56^-); 0 - 400 nM, 24 hours, PBMCs from patients with CLL
  T cell numbers and viability: negligible effects
T cells (CD3^+CD56^-); 200 nM, 24 hours, PBMCs from healthy donors (n = 4), Figure 2Q
  ratio of apoptosis to cell death in T cells: comparable to that induced by EC-7073
T cells (CD3^+CD56^-); 200 nM, 24 hours, PBMCs from healthy donors (n = 10), Figure 2N
  viability of T cells, comparison of mithralogs: not exhibit toxicity
T cells (CD3^+CD56^-); 200 nM, 24 hours, PBMCs from healthy donors (n = 15), compared with PBMCs from patients with CLL
  cell numbers and viability of T lymphocytes: comparable effects
T cells (CD3^+CD56^-); EC-7072 200 nM 24 hours vs fludarabine 10 µM 24 hours, PBMCs from patients with CLL (n = 6 - 8), Figure 4F
  toxicity against T cells compared with fludarabine: significantly less toxic than fludarabine
